From publication PMC3823425 (Journal of Cellular and Molecular Medicine, 2012)
Entries after “also recorded” stand apart in the source; their conditions may differ. Read-outs that look alike come from different tables or passages of the source.

Key:
[1] = tested on: HUVEC cells; assay: VEGF-driven HUVEC proliferation; format: cell-based; conditions: Homo sapiens, read-out: IC50 VEGF-driven HUVECs proliferation
[2] = tested on: HUVEC cells; assay: b-FGF-driven HUVEC proliferation; format: cell-based; conditions: Homo sapiens, read-out: IC50 bFGF-driven HUVECs proliferation
[3] = molecular target: T1, FGFR1 (Homo sapiens, UniProt P11362); assay: bFGF-induced FGFR1 autophosphorylation in HUVEC; format: cell-based; conditions: b-FGF 25 ng/ml
[4] = molecular target: PDGFRβ (Mus musculus, UniProt P05622); assay: PDGFBB-induced PDGFRβ autophosphorylation in Swiss3T3; format: cell-based, rat
PDGFRβ (Mus musculus, UniProt P05622), sequence (P05622 32-1098): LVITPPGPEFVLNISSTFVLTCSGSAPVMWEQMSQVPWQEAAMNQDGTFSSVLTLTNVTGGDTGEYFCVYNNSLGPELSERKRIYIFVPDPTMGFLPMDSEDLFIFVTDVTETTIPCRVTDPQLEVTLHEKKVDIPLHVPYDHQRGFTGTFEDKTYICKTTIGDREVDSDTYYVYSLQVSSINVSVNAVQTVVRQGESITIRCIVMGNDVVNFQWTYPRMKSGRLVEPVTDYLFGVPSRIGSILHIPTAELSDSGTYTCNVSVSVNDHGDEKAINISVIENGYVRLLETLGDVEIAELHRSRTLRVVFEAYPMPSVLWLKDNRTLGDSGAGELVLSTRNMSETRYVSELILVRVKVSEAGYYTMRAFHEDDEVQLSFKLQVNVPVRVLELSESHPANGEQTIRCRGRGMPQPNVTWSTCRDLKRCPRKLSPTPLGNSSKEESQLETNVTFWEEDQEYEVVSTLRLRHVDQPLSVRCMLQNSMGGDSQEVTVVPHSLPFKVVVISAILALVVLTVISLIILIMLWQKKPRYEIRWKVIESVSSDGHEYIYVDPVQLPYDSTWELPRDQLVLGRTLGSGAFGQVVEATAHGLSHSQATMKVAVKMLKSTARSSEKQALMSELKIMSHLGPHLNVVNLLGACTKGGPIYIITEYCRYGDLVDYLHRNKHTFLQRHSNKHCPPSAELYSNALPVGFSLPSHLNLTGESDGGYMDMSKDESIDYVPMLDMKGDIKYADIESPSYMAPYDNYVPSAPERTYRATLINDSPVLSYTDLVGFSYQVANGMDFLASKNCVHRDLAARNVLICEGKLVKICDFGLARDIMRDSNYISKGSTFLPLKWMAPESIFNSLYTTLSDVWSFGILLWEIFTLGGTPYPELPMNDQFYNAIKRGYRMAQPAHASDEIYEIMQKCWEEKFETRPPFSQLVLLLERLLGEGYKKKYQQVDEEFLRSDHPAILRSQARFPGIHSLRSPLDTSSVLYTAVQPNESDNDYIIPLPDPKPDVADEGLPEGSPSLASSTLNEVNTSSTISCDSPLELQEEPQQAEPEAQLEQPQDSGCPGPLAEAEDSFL

[5] = molecular target: VEGFR1 (Homo sapiens, UniProt P17948); assay: ELISA kinase assay VEGFR1; format: biochemical
[6] = molecular target: T2, VEGFR2 (Homo sapiens, UniProt P35968); assay: biochemical
Target sequence in this assay (P35968 834-1162 limits assumed): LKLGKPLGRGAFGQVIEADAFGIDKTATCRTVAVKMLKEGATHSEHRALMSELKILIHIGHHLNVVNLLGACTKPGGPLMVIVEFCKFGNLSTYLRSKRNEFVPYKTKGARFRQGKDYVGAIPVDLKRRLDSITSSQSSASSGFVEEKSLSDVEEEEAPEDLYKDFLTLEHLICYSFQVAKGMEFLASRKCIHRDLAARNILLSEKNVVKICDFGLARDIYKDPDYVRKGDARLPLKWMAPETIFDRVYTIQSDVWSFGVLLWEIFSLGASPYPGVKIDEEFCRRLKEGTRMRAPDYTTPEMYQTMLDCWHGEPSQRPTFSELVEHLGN

[7] = molecular target: T3, PDGFRβ (Homo sapiens, UniProt P09619); assay: ELISA kinase assay PDGFRβ; format: biochemical
T3 sequence (P09619 33-1106, species assumed): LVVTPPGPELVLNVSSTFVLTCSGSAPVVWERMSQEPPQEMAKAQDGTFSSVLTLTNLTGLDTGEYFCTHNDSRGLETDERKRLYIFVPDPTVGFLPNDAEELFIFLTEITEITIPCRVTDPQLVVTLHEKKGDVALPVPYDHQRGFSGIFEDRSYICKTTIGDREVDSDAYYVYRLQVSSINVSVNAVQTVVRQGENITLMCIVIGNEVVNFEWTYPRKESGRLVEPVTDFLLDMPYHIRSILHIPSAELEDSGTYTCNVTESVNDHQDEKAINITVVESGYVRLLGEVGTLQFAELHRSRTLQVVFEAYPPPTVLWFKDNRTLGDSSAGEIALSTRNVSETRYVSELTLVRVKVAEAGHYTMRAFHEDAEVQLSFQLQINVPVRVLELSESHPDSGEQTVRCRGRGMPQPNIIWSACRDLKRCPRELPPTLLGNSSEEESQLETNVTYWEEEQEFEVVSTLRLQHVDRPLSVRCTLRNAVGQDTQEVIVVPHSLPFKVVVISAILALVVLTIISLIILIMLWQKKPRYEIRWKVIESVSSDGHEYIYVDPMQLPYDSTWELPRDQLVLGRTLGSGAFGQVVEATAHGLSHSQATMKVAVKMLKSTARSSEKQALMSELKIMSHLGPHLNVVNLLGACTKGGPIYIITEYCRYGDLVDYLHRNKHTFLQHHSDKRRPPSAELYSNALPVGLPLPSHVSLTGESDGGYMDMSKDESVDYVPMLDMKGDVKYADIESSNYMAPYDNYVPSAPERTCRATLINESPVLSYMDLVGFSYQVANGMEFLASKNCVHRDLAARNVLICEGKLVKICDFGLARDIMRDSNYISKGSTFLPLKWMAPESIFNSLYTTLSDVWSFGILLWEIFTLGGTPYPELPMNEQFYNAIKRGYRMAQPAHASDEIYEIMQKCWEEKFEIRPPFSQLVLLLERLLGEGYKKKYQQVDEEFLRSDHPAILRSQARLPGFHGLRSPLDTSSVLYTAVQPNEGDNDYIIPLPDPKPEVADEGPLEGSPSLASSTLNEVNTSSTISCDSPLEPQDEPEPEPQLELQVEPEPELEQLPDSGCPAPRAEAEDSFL

[8] = molecular target: T4, PDGFRα (Homo sapiens, UniProt P16234); assay: ELISA kinase assay PDGFRα; format: biochemical
T4 sequence (P16234 24-1089, species assumed): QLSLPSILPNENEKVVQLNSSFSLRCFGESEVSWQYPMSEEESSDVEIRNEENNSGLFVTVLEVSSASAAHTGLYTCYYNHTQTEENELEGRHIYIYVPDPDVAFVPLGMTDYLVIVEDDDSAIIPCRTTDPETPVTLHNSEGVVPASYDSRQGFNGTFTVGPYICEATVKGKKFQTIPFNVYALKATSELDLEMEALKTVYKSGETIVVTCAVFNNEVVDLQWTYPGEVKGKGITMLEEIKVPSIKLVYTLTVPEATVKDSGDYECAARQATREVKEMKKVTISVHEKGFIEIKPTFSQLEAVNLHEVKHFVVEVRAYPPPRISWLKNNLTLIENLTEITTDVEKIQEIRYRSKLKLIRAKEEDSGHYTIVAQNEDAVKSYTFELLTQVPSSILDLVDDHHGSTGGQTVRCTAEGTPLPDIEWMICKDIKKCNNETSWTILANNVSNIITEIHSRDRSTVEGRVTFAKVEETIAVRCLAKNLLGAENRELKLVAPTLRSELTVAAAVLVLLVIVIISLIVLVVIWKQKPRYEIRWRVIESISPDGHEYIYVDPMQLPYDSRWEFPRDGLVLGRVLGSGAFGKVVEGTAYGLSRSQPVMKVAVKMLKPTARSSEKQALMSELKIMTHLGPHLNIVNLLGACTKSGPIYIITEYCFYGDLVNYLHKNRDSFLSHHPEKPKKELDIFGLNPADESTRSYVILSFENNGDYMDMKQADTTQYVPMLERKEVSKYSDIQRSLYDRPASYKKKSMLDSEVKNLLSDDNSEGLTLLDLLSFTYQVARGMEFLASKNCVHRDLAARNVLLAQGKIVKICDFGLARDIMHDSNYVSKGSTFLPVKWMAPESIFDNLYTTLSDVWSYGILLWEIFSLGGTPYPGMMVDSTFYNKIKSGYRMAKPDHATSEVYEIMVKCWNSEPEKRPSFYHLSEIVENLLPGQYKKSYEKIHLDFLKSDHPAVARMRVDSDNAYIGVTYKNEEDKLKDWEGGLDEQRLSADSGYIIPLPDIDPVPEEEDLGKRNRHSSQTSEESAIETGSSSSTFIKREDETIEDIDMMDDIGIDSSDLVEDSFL

[9] = molecular target: RET (Homo sapiens, UniProt P07949); assay: ELISA kinase assay RET; format: biochemical
[10] = molecular target: c-Kit (Homo sapiens, UniProt P10721); assay: ELISA kinase assay c-Kit; format: biochemical
[11] = molecular target: c-Src (Homo sapiens, UniProt P12931); assay: biochemical
[12] = molecular target: EPH-A2 (Homo sapiens, UniProt P29317); assay: ELISA kinase assay EPH-A2; format: biochemical; conditions: IC50 EPHA2, ELISA
[13] = molecular target: EPH-B2 (Homo sapiens, UniProt P29323); assay: ELISA kinase assay EPH-B2; format: biochemical
[14] = tested on: chicken chorioallantoic membrane; assay: Chicken chorioallantoic membrane assay; format: in vivo; conditions: 48 hrs
[15] = tested on: renal carcinoma xenograft (No.213847); assay: CD31 immunohistochemistry of tumour microvessels; format: in vivo, nude mice; conditions: five consecutive days
[16] = tested on: renal carcinoma xenograft (No.213847); assay: PDGFRβ immunohistochemistry of tumour pericytes; format: in vivo, nude mice; conditions: 5 days
[17] = tested on: 786-O renal carcinoma xenograft; assay: Tumour xenograft 786-O; format: in vivo, nude mice; conditions: 786-O model, dosages below 20 mg/kg
[18] = tested on: Bxpc-3 pancreatic cancer xenograft; assay: Tumour xenograft Bxpc-3; format: in vivo, nude mice; conditions: Bxpc-3 model, dosages below 20 mg/kg
[19] = tested on: renal carcinoma xenograft No.213847; assay: Patient-derived renal carcinoma xenograft No.213847; format: in vivo, nude mice
[20] = tested on: renal carcinoma xenograft No.20090223; assay: Patient-derived renal carcinoma xenograft No.20090223; format: in vivo, nude mice
[21] = Toxicity observed in panel of human xenograft models; format: in vivo, nude mice; conditions: p.o., 5 days per week, 5–20 mg/kg
[22] = Plasma pharmacokinetics after p.o. administration; format: in vivo, rats
[23] = Tissue distribution in tumour-bearing nude mice; format: in vivo; conditions: for concentration at 21 day: nude, mouse, oral, 10 mg/kg
[24] = tested on: ERK1/2 and AKT; assay: VEGF-induced activation of ERK1/2 and AKT; format: cell-based; conditions: VEGF165 50 ng/ml
[25] = molecular target: T2, VEGFR2; format: biochemical; conditions: pre-incubation 30 min., 100-fold dilution
Target sequence in this assay (P35968 834-1162 limits assumed): as the sequence (P35968 834-1162 limits assumed) above

[26] = molecular target: T2, VEGFR2; assay: Cellular VEGFR2 autophosphorylation reversible assay; format: cell-based; conditions: HUVEC, 1 μmol/L for 4 hrs
Target sequence in this assay (P35968 20-1356): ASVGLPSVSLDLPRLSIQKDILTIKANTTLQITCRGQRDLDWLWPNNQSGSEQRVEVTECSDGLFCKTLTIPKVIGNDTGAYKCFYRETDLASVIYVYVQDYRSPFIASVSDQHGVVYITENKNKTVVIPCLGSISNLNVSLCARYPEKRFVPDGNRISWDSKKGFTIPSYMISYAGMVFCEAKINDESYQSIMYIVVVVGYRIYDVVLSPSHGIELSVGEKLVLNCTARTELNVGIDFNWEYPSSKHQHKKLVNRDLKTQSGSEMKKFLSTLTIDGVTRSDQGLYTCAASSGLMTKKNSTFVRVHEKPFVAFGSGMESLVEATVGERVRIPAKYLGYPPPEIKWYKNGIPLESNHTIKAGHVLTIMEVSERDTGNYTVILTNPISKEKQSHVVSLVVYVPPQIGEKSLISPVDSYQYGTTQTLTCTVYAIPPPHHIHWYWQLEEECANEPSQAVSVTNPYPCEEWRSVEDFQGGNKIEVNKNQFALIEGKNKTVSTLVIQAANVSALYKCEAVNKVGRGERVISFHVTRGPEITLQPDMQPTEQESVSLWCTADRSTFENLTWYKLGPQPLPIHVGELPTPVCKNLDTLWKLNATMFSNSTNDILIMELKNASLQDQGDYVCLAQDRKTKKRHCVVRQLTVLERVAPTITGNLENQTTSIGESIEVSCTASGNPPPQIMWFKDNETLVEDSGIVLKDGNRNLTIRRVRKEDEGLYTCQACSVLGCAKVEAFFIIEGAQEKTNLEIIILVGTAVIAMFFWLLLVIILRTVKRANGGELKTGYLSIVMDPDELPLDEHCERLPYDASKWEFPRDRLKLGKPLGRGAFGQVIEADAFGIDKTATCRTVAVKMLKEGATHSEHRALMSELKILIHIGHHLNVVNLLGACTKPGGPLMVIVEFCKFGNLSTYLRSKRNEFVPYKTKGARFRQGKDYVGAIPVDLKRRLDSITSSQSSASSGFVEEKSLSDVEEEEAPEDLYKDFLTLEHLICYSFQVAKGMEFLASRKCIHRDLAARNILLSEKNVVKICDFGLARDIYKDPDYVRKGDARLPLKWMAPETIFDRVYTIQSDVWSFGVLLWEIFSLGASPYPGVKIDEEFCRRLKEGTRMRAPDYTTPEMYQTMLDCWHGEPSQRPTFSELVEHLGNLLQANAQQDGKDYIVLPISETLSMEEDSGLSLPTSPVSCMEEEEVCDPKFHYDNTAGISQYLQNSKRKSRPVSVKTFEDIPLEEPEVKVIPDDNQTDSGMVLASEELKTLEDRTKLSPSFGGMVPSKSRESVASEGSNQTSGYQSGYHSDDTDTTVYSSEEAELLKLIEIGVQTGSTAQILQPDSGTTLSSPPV

[27] = molecular target: T2, VEGFR2; format: biochemical; conditions: varying concentrations of ATP
Target sequence in this assay (P35968 834-1162 limits assumed): as the sequence (P35968 834-1162 limits assumed) above

[28] = tested on: 16 different tumour cell lines; assay: Tumour cell lines proliferation in vitro; format: cell-based; conditions: read-out: average IC50 against 16 tumour cell lines proliferation
[29] = molecular target: T1, FGFR1; conditions: molecular assay, versus sorafenib
[30] = molecular target: T2, VEGFR2
Target sequence in this assay (P35968 20-1356): as the sequence (P35968 20-1356) above

[31] = molecular target: T4, PDGFRα; conditions: read-out: IC50 PDGFRα phosphorylation in vitro assay; ref 17 Bello et al.; cited from earlier work
[32] = molecular target: T3, PDGFRβ; conditions: read-out: IC50 PDGFRβ phosphorylation in vitro assay; ref 17 Bello et al.; cited from earlier work
[33] = molecular target: T1, FGFR1; assay: biochemical
[34] = day 21 versus first administration

For `CNC(=O)c1cc(Oc2ccc(NC(=O)Nc3ccc(Cl)c(C(F)(F)F)c3)cc2)ccn1` [Sorafenib, reference compound], the IC50 [1] was 337 nM, the IC50 [2] was 2260 nM and the “bFGF-induced FGFR1 autophosphorylation / activation” value [3] was “potent inhibitory effects”. The PDGFRβ activation ([4]; Swiss3T3, concentration not stated) was “potent inhibitory effects”.
With `CNC(=O)c1cccc2cc(Oc3ccnc4cc(OCC5(N)CC5)c(OC)cc34)ccc12` [AL3810, 6-[[7-[(1-aminocyclopropyl)methoxy]-6-methoxy-4-quinolyl]oxy]-N-methyl-naphthalene-1-carboxamide] the IC50 [5] was 12 nM, the IC50 [6] was 4 nM and the IC50 [7] was 8 nM. For the same molecule, the IC50 [8] was 13 nM, the IC50 [9] was 200 nM and the IC50 [10] was 527 nM. It also gave an IC50 [11] of 4900 nM, an IC50 [12] of 6660 nM and an IC50 [13] of 902 nM. For the same molecule, the IC50 [1] was 42 nM, the IC50 [2] was 140 nM and the “inhibition rate of blood vessel numbers and branching” value ([14]; 0.3 nmol/egg) was 45.4%. The “inhibition rate of blood vessel numbers and branching” value ([14]; 1 nmol/egg) was 82.5%, the “reduction of vessel density (CD31)” value ([15]; 5 mg/kg) was 45% and the “reduction of vessel density (CD31)” value ([15]; 10 mg/kg) was 80%. The “reduction of vessel density (CD31)” value ([15]; 20 mg/kg) was 90%, the “reduction of PDGFRβ positive cells” value ([16]; 5 mg/kg) was 52% and the “reduction of PDGFRβ positive cells” value ([16]; 10 mg/kg) was 73%. The “reduction of PDGFRβ positive cells” value ([16]; 20 mg/kg) was 86%, the tumour response [17] was “tumour regression” and the tumour response [18] was “tumour regression”. For the same molecule, the T/C ([19]; No.213847, 5 mg/kg p.o., 5 days per week) was 9.01%, the tumour response ([19]; No.213847, 10–20 mg/kg) was “tumour regression” and the T/C ([20]; No.20090223, 5 mg/kg p.o., 5 days per week) was 13.3%. The tumour response ([20]; No.20090223, 10–20 mg/kg) was “tumour regression”, the “toxicity in xenograft-bearing mice” value [21] was “no obvious toxicity observed” and the bioavailability ([22]; rat, in vivo, po) was 31%. The Tmax ([22]; rat, plasma, po, 10 mg) was 6 h, the concentration at 24 hrs ([22]; rat, plasma, po, 10 mg) was less than 50 ng/mL and the maximal plasma concentration ([22]; rats, 10 mg p.o.) was roughly 1000 ng/mL. For the same molecule, the “exposure in liver, improvement versus first administration” value [23, 34] was 1.6 times, the “exposure in lung, improvement versus first administration” value [23, 34] was 1.4 times and the “exposure in renal tissue, improvement versus first administration” value [23, 34] was 2.1 times. For the same molecule, the “exposure in tumours, improvement versus first administration” value [23, 34] was 2.9 times, the concentration at 21 day ([23]; kidney) was 398 ng/g and the concentration at 21 day ([23]; liver) was 276 ng/g. For the same molecule, the concentration at 21 day ([23]; lung) was 208 ng/g, the concentration at 21 day ([23]; plasma) was 7.8 ng/mL and the concentration at 21 day ([23]; tumour) was 403 ng/g. The “bFGF-induced FGFR1 autophosphorylation / activation” value [3] was “blocked”, the “PDGFBB-induced PDGFRβ autophosphorylation” value ([4]; 100 nmol/l, Swiss3T3, PDGF-BB 40 ng/ml) was “inhibited; also recorded: almost completely block” and the “VEGF-induced activation of ERK1/2 and AKT” value [24] was “dramatically inhibited”. The “reversibility of VEGFR2 inhibition” value [25] was “reversible inhibitor”, the “VEGFR2 phosphorylation after inhibitor washout” value ([26]; 6 hrs after removal) was “recovered substantially” and the “VEGFR2 phosphorylation after inhibitor washout” value ([26]; 24 hrs after washout) was “total restoration”. The “mode of inhibition versus ATP” value [27] was “ATP competitive”, the IC50 [28] was roughly 18700 nM and the “IC50 against FGFR lower than sorafenib” value [29] was 25 fold. For the same molecule, the “Tyr996 phosphorylation of VEGFR2” value [30] was “inhibited”, the VEGFR2 autophosphorylation [30] was “almost completely blocked” and the IC50 [31] was 175 nM. For the same molecule, the IC50 [32] was 525 nM and the IC50 [33] was 7 nM.
